In patent publication US7547687B2, “Therapeutic treatment methods” (priority 2002, dated 2009):

Experiments:
[1] = tested on: lethally-irradiated female B6D2F1 mice; assay: Survival of lethally-irradiated mice (10 Gy total body irradiation); type: in vivo; details: groups of 12 animals
Experimental: Treatment of ionizing radiation exposure. The effect of selected F1Cs on survival of lethally-irradiated female B6D2F1 mice were compared to control animals treated with vehicle alone. The animals were exposed to 10 Gy of total body irradiation at 2.5 Gy/min using a ^137Cs source. […] For Group 4, test article was administered as a 50 μL volume, by intramuscular injection for three consecutive days. The formulation was a suspension containing 0.1% w/v carboxymethyl-cellulose, 0.9% w/v sodium chloride and 0.05% v/v phenol. The formulations were agitated to uniformly resuspend the F1C before syringing, and injected into animals within a few minutes of drawing into the syringe to prevent settling in the syringe.
The groups of animals were treated as follows.
The number of surviving animals is shown for day 6, 7, 12 and 21.

female BALB/cByJ mice = assay: Delayed type hypersensitivity (DTH) response to topical oxazolone challenge, differential ear thickness; type: in vivo; details: 24 hours after oxazolone challenge; vehicle alone 0.225 mm
Experimental: Modulation of delayed type hypersensitivity. The capacity of F1Cs to modulate delayed type hypersensitivity (DTH) is determined in mice. Groups of five female BALB/cByJ mice (20-25 grams) are anesthetized and 100 μL of a 3% solution of oxazolone is applied on day 0 to the shaved abdomen and dried. Seven days later, on day 7, the mice are challenged by applying 5 μL of oxazolone topically to each side of the right ear. The F1C (at about 20-100 mg/mL) in vehicle is administered by subcutaneous injection (2 mg/day) one time on day 6, 24 hours before the oxazolone challenge. The vehicle as a non-aqueous suspension of the F1C in, e.g., 2% benzyl alcohol w/v, 0.1% Brij 96 w/v and equal volumes of PEG 300 and propylene glycol.
Dexamethasone in saline (0.2 mg/mL) is administered daily for 9 days (day −1 to 7), first dose 24 hours before sensitization, last dose at challenge by subcutaneous injection (0.01 mg/dose, 50 μL/injection). On Day 8, 24 hours following the oxazolone challenge, both the right and left ear thicknesses are measured using a micrometer caliper and the differences are determined. The differential ear thickness is measured as an indicator of the DTH response to topical oxazolone challenge. The DTH response is expressed as the difference in the thickness (mm) between the right and the left ears for each animal.

[2] = 0.6 mg i.m. daily for 3 consecutive days after 10 Gy
[3] = 0.6 mg s.c. daily for 3 consecutive days, first dose 2 to 4 hours after 10 Gy
[4] = 3.0 mg s.c. daily for 3 consecutive days after 10 Gy

C[C@]12CC[C@H]3[C@@H](CC=C4C[C@@H](O)CC[C@@]43C)[C@@H]1CC[C@@H]2O [3β,17β-dihydroxyandrost-5-ene]
number of surviving animals, day 6 [1, 2]: 12
number of surviving animals, day 7 [1, 2]: 12
number of surviving animals, day 12 [1, 2]: 11
number of surviving animals, day 21 [1, 2]: 9
number of surviving animals, day 6 [1, 3]: 12
number of surviving animals, day 7 [1, 3]: 11
number of surviving animals, day 12 [1, 3]: 10
number of surviving animals, day 21 [1, 3]: 7
number of surviving animals, day 6 [1, 4]: 12
number of surviving animals, day 7 [1, 4]: 12
number of surviving animals, day 12 [1, 4]: 9
number of surviving animals, day 21 [1, 4]: 7

C[C@]12CC[C@H]3[C@@H](CC=C4C[C@@H](O)CC[C@@]43C)[C@@H]1CC[C@@H]2N [3β-hydroxy-17β-aminoandrost-5-ene]
number of surviving animals, day 6 [1, 3]: 12
number of surviving animals, day 7 [1, 3]: 12
number of surviving animals, day 12 [1, 3]: 12
number of surviving animals, day 21 [1, 3]: 11

O=P1(N(CCCl)CCCl)NCCCO1 (stereo not drawn) [cyclophosphamide]
DTH response (differential ear thickness, right minus left ear) (female BALB/cByJ mice): 0.092 mm

C[C@@H]1C[C@H]2[C@@H]3CCC4=CC(=O)C=C[C@]4(C)[C@@]3(F)[C@@H](O)C[C@]2(C)[C@@]1(O)C(=O)CO [dexamethasone]
DTH response (differential ear thickness, right minus left ear) (female BALB/cByJ mice): 0.144 mm
